Data from patent US20250042904A1, “COMPOUNDS USED AS SRC INHIBITORS” (WIGEN BIOMEDICINE TECHNOLOGY (SHANGHAI) CO., LTD., priority 2021, published 2025).

Assays:
recombinant protein Src = recombinant protein Src (Homo sapiens (Human), UniProt P12931); test: In vitro assay for inhibiting Src kinase activity (biotin-labeled TK substrate, Sa-XL 665, Cryptate-labeled antibody); type: biochemical; conditions: read-out: IC50, inhibitory activity against recombinant protein Src
Protocol: After the compound serially diluted with DMSO and a Src recombinant protein were incubated at room temperature for 10 min, the reaction was initiated by the addition of a biotin-labeled TK substrate and ATP. After the mixture was left to stand at room temperature for 40 min Sa-XL 665 and a Cryptate-labeled antibody were added. The fluorescence values at 615 nm and 665 nm were measured, and the ratio of 665 nm to 615 nm was calculated. The inhibition percentages and IC50 of the compounds were calculated compared to the DMSO group.

PC3 cells = test: In vitro anti-proliferative activity against PC3 cells (agarose, 7 days); type: cell-based; conditions: Homo sapiens, PC-3, 168 h, 7 days of incubation
Protocol: PC3 cells were mixed with 0.4% agarose at 1200 cells/well, and the mixture was seeded on 0.6% agarose. The compound serially diluted was added, and the cell number was measured after 7 days of incubation. The inhibition percentages and IC50 of the compounds were calculated compared to the DMSO group.

[1] = Stability experiment in aqueous hydrochloric acid solution pH 2 (HPLC); type: physicochemical; conditions: for Initial purity: before acid treatment (baseline); for Purity after stirring in an aqueous hydrochloric acid solution with a pH of 2 for 0.5 h: pH 2, room temperature
Protocol: 5 mg each of compound 59 and compound A was dissolved in an aqueous hydrochloric acid solution (5 mL) with a pH of 2. The mixture was stirred at room temperature. Samples were taken after 0.5 h for HPLC assay using the following assay conditions. The HPLC assay results are shown in Table 7. • Instrument: Agilent 1260 infinity 2 • Column: Xtimate C18 4.6*150 mm,3 um • Temperature:25° C. • Wave length:210 nm/254 nm • phase A: H2O (0.1% TFA) • phase B: MECN (0.1% TFA) • Gradient: […]

[2] = In vivo pharmacokinetic experiment in CD-1 female mice; conditions: mouse, plasma, CD-1 mice; for Vd: read-out: Vdss
Protocol: CD-1 female mice aged 7 to 10 weeks were intravenously administered and orally administered at a dose of 2 mg/kg and 10 mg/kg, respectively. The mice were fasted for at least 12 h before the administration and given food 4 h after the administration, and they were given ad libitum access to water during the experiment. On the day of the experiment, animals in the intravenous group were administered the corresponding compound by single injection via the tail vein at an administration volume of 10 mL/kg. Animals in the oral group were administered the corresponding compound by single intragastric injection at an administration volume of 10 mL/kg. The animals were weighed before administration, and the administration volume was calculated according to the body weight. The sample collection time was 0.083 h (injection group), 0.167 h, 0.5 h, 1 h, 2 h, 4 h, 8 h, and 24 h. About 200 μL of whole blood was collected through the submaxillary venous plexus at each time point and used to prepare plasma for concentration determination by high-performance liquid chromatography-tandem mass spectrometry (LC-MS/MS). All animals were euthanized with CO2 anesthesia after the PK samples were collected at the last time point. The plasma concentrations were processed using a non-compartmental model of Phoenix WinNonlin™ version 8.3 (Certara) pharmacokinetic software, and the pharmacokinetic parameters were calculated using a linear-log trapezoidal method.

[3] = tested on: PC3 subcutaneous xenograft tumor; test: In vivo pharmacodynamic study, mouse PC3 subcutaneous xenograft tumor model
Protocol: Each nude mouse was grafted subcutaneously with 10×10^6 PC3 cells. When the tumor grew to 100-200 mm^3, the compound was administered orally once a day, and the tumor volume was measured twice a week and at the end of treatment. Tumor growth inhibition rate of the compound was calculated according to the following equation: tumor growth inhibition (TGI)=1−(tumor volume on day 17 in treatment group−tumor volume on day 1 in treatment group)/(tumor volume on day 17 in vehicle control group−tumor volume on day 1 in […]).

Sequence of recombinant protein Src (P12931 whole entry, looked up): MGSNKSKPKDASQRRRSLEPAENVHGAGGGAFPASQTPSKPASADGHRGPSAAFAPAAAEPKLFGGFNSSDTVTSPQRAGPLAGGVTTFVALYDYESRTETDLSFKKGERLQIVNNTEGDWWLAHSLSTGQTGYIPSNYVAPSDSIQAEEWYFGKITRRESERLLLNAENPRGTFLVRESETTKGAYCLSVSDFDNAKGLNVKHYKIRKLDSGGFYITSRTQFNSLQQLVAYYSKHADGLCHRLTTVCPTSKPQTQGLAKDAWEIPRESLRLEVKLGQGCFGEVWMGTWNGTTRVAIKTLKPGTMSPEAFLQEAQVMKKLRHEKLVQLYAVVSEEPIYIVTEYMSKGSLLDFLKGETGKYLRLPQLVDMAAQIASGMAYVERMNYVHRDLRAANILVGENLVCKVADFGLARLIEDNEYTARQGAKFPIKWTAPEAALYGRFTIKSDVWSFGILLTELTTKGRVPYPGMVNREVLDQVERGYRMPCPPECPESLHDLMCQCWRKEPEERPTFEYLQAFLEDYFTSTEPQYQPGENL

Row | SMILES | IC50 (recombinant protein Src) | further results
1 | CN(C)CCN1CCN(CCn2nc(-c3ccc(NC(=O)OC(C)(C)C)c4c3OCO4)c3c(N)ncnc32)CC1 [Compound 42] | ≤ 10 nM | –
2 | CC(C)(C)OC(=O)Nc1ccc(-c2nn(CCN3CCC(N4CCOCC4)CC3)c3ncnc(N)c23)c2c1OCO2 [Compound 57] | ≤ 10 nM | –
3 | CN(C)CC1CCN(CCn2nc(-c3ccc(NC(=O)OC(C)(C)C)c4c3OCO4)c3c(N)ncnc32)CC1 [Compound 43] | ≤ 10 nM | –
4 | CN1CC(OC(=O)Nc2ccc(-c3nn(CCN4CCC(N5CCC5)CC4)c4ncnc(N)c34)c3c2OCO3)C1 [Compound 48] | ≤ 10 nM | –
5 | COc1cc(-c2nn(CCN3CCC(N(C)C4CC4)CC3)c3ncnc(N)c23)ccc1NC(=O)OC(C)(C)C [Compound 62] | ≤ 10 nM | IC50 (PC3 cells): 10.1 nM
6 | COc1cc(-c2nn(CCN3CCC(N(C)C)CC3)c3ncnc(N)c23)ccc1NC(=O)OC1CCC1 [Compound 60] | ≤ 10 nM | –
7 | CN(C)CCC1CCN(CCn2nc(-c3ccc(NC(=O)OC(C)(C)C)c4c3OCO4)c3c(N)ncnc32)CC1 [Compound 44] | ≤ 10 nM | –
8 | CN(C)[C@H]1CCN(CCn2nc(-c3ccc(NC(=O)OC(C)(C)C)c4c3OCO4)c3c(N)ncnc32)C1 [Compound 38] | ≤ 10 nM | –
9 | COc1cc(-c2nn(CCN3CCC(N(C)C)CC3)c3ncnc(N)c23)ccc1NC(=O)OC(C)(C)C [Compound A, reference compound] | – | Initial purity [1]: 96.18%; Purity after stirring in an aqueous hydrochloric acid solution with a pH of 2 for 0.5 h [1]: Complete degradation; AUC(0-t) ([2]; oral administration 10 mg/kg): 1440 ng·h/mL; Cmax ([2]; oral administration 10 mg/kg): 211 ng/mL; bioavailability ([2]; oral administration 10 mg/kg): 42.9%; half-life ([2]; oral administration 10 mg/kg): 5.7 h; AUC(0-t) ([2]; iv, injection 2 mg/kg): 682 ng·h/mL; clearance ([2]; iv, injection 2 mg/kg): 775 mL/min/kg; half-life ([2]; iv, injection 2 mg/kg): 6.4 h; Vd ([2]; iv, injection 2 mg/kg): 15.2 L/kg
10 | CN(C)C1CCN(CCn2nc(-c3ncc(NC(=O)OC(C)(C)C)c4c3OCO4)c3c(N)ncnc32)CC1 [Compound 20] | 10 to 50 nM | –
11 | CN1CCC2(CC1)CCN(CCn1nc(-c3ccc(NC(=O)OC(C)(C)C)c4c3OCO4)c3c(N)ncnc31)CC2 [Compound 49] | ≤ 10 nM | –
12 | COc1cc(-c2nn(CCN3CCC(N(C)C)CC3)c3ncnc(N)c23)ccc1NC(=O)OC12CC(C1)C2 [Compound 65] | ≤ 10 nM | –
13 | COc1cc(-c2nn(CCN3CCC(N(C)C4CC4)CC3)c3ncnc(N)c23)ccc1NC(=O)OC1(C)CC1 [Compound 69] | ≤ 10 nM | IC50 (PC3 cells): 12.5 nM
14 | COC1CCN(CCn2nc(-c3ccc(NC(=O)OC(C)(C)C)c4c3OCO4)c3c(N)ncnc32)CC1 [Compound 58] | ≤ 10 nM | –
15 | CC(C)(C)OC(=O)Nc1ccc(-c2nn(CCN3CCC(C#N)CC3)c3ncnc(N)c23)c2c1OCO2 [Compound 46] | ≤ 10 nM | –
16 | CN(C)C1CCN(CCn2nc(-c3cnc(NC(=O)OC(C)(C)C)c4c3OCO4)c3c(N)ncnc32)CC1 [Compound 19] | 10 to 50 nM | –
17 | CN(C)[C@@H]1CCN(CCn2nc(-c3ccc(NC(=O)OC(C)(C)C)c4c3OCO4)c3c(N)ncnc32)C1 [Compound 39] | ≤ 10 nM | –
18 | COc1cc(-c2nn(CCN3CCC(N(C)C)CC3)c3ncnc(N)c23)ccc1NC(=O)OC1CC1 [Compound 63] | ≤ 10 nM | –
19 | COCCN1CCN(CCn2nc(-c3ccc(NC(=O)OC(C)(C)C)c4c3OCO4)c3c(N)ncnc32)CC1 [Compound 45] | ≤ 10 nM | –
20 | CN(C)CCN(C)CCn1nc(-c2ccc(NC(=O)OC(C)(C)C)c3c2OCO3)c2c(N)ncnc21 [Compound 50] | ≤ 10 nM | –
21 | CN(C)C1CCN(CCn2nc(-c3cc(F)c(NC(=O)OC(C)(C)C)c4c3OCO4)c3c(N)ncnc32)CC1 [Compound 17] | 10 to 50 nM | –
22 | CN(C)C1CCN(CCn2nc(-c3ccc(NC(=O)OC(C)(C)C)c4c3OC(F)(F)O4)c3c(N)ncnc32)CC1 [Compound 51] | ≤ 10 nM | –
23 | COc1cc(-c2nn(CCN3CCC(N(C)C)CC3)c3ncnc(N)c23)ccc1NC(=O)OC1CC(F)(F)C1 [Compound 70] | ≤ 10 nM | –
24 | COc1cc(-c2nn(CCN3CCC(N(C)C)CC3)c3ncnc(N)c23)ccc1NC(=O)OC1(C)CCC1 [Compound 61] | ≤ 10 nM | IC50 (PC3 cells): 5.6 nM
25 | CN1CCN(C2CCN(CCn3nc(-c4ccc(NC(=O)OC(C)(C)C)c5c4OCO5)c4c(N)ncnc43)CC2)CC1 [Compound 47] | ≤ 10 nM | –
26 | COc1cc(-c2nn(CCN3CCC(N(C)C4CC4)CC3)c3ncnc(N)c23)ccc1NC(=O)OC1(C)CCC1 [Compound 68] | ≤ 10 nM | IC50 (PC3 cells): 15.2 nM
27 | CN(C)C1CCN(CCn2nc(-c3c(F)cc(NC(=O)OC(C)(C)C)c4c3OCO4)c3c(N)ncnc32)CC1 [Compound 18] | 10 to 50 nM | –
28 | CC(C)(C)OC(=O)Nc1ccc(-c2nn(CCN3CCN(CCO)CC3)c3ncnc(N)c23)c2c1OCO2 [Compound 41] | ≤ 10 nM | –
29 | CC(C)(C)OC(=O)Nc1ccc(-c2nn(CCN3CCC(N4CCCC4)CC3)c3ncnc(N)c23)c2c1OCO2 [Compound 37] | ≤ 10 nM | IC50 (PC3 cells): 11.7 nM
30 | COc1cc(-c2nn(CCN3CCC(N(C)C)CC3)c3ncnc(N)c23)ccc1NC(=O)OC1C2CC1C2 (stereo not shown) [Compound 64] | ≤ 10 nM | –

More lines, main results first:

Row | IC50 (recombinant protein Src) | SMILES | further results
31 | ≤ 10 nM | CN(C)C1CCN(CCCn2nc(-c3ccc(NC(=O)OC(C)(C)C)c4c3OCO4)c3c(N)ncnc32)CC1 [Compound 52] | –
32 | ≤ 10 nM | CN(C1CC1)C1CCN(CCn2nc(-c3ccc(NC(=O)OC(C)(C)C)c4c3OCO4)c3c(N)ncnc32)CC1 [Compound 36] | –
33 | ≤ 10 nM | CN(C)C1CCN(CCn2nc(-c3ccc(NC(=O)OC4(C)CCC4)c4c3OCO4)c3c(N)ncnc32)CC1 [Compound 5] | IC50 (PC3 cells): 4.2 nM
34 | 10 to 50 nM | CCOC(=O)Nc1ccc(-c2nn(CCN3CCC(N(C)C)CC3)c3ncnc(N)c23)c2c1OCO2 [Compound 9] | –
35 | 10 to 50 nM | CC(C)OC(=O)Nc1ccc(-c2nn(CCN3CCC(N(C)C)CC3)c3ncnc(N)c23)c2c1OCO2 [Compound 8] | –
36 | ≤ 10 nM | CN(C)C1CCN(CCn2nc(-c3ccc(NC(=O)OC4C5CC4C5)c4c3OCO4)c3c(N)ncnc32)CC1 (stereo not shown) [Compound 6] | –
37 | ≤ 10 nM | CN(C)C1CCN(CCn2nc(-c3ccc(NC(=O)OC4CC(F)(F)C4)c4c3OCO4)c3c(N)ncnc32)CC1 [Compound 12] | –
38 | ≤ 10 nM | CN(C)C1CCN(CCn2nc(-c3ccc(NC(=O)OC45CC(C4)C5)c4c3OCO4)c3c(N)ncnc32)CC1 [Compound 7] | –
39 | ≤ 10 nM | COc1cc(-c2nn(CCN3CCC(N(C)C)CC3)c3ncnc(N)c23)ccc1NC(=O)OC1(C)CC1 [Compound 59] | TGI (tumor growth inhibition) ([3]; day 17, oral once a day, 50 mg/kg (day 1-day 7), 80 mg/kg (day 8-day 18)): 53%; Tumor volume on day 17 of treatment ([3]; nude mice, oral once a day, 50 mg/kg (day 1-day 7), 80 mg/kg (day 8-day 18)): 318 mm^3; Tumor volume on day 1 of treatment ([3]; nude mice, oral once a day, baseline day 1): 120 mm^3; Initial purity [1]: 96.35%; Purity after stirring in an aqueous hydrochloric acid solution with a pH of 2 for 0.5 h [1]: 96.16%; AUC(0-t) ([2]; oral administration 10 mg/kg): 491 ng·h/mL; Cmax ([2]; oral administration 10 mg/kg): 88.9 ng/mL; bioavailability ([2]; oral administration 10 mg/kg): 32.1%; half-life ([2]; oral administration 10 mg/kg): 5.3 h; AUC(0-t) ([2]; iv, injection 2 mg/kg): 300 ng·h/mL; clearance ([2]; iv, injection 2 mg/kg): 1770 mL/min/kg; half-life ([2]; iv, injection 2 mg/kg): 5.9 h; Vd ([2]; iv, injection 2 mg/kg): 35.6 L/kg; IC50 (PC3 cells): 5.3 nM
40 | ≤ 10 nM | CN(C)C1CCN(CCn2nc(-c3ccc(NC(=O)OC4COC4)c4c3OCO4)c3c(N)ncnc32)CC1 [Compound 14] | –
41 | ≤ 10 nM | CN(C)C1CCN(CCn2nc(-c3ccc(NC(=O)OC(C)(C)C)c4c3OCO4)c3c(N)ncnc32)CC1 [Compound 1] | IC50 (PC3 cells): 3.5 nM
42 | ≤ 10 nM | CN(C)C1CCN(CCn2nc(-c3ccc(NC(=O)OC4CCC4)c4c3OCO4)c3c(N)ncnc32)CC1 [Compound 4] | –
43 | ≤ 10 nM | CN(C)C1CCN(CCn2nc(-c3ccc(NC(=O)OC4(C)CC4)c4c3OCO4)c3c(N)ncnc32)CC1 [Compound 3] | IC50 (PC3 cells): 4.8 nM
44 | ≤ 10 nM | CN(C)C1CCN(CCn2nc(-c3ccc(NC(=O)OC4CC4)c4c3OCO4)c3c(N)ncnc32)CC1 [Compound 2] | –
45 | 10 to 50 nM | CN(C)C1CCN(CCn2nc(-c3ccc(NC(=O)OC4CCCC4)c4c3OCO4)c3c(N)ncnc32)CC1 [Compound 13] | –
